18 compounds from patent US11401270B2, “Alcoxyamino derivatives for treating pain and pain related conditions” (ESTEVE PHARMACEUTICALS, S.A., priority 2017, dated 2022) can be followed below.

Experiment [1] has as its target Human α2δ-1 subunit of Cav2.2 calcium channel (Homo sapiens (Human), UniProt P54289). Briefly: Binding Assay to Human α2δ-1 Subunit of Cav2.2 Calcium Channel. To be noted: human α2δ-1 enriched membranes, 15 nM [3H]-Gabapentin, read-out: Ki(nM) alpha2delta Hum. The essentials: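 Radioligand filtration binding at the α2δ-1 subunit, test compound at five concentrations; nonspecific binding defined with 10 μM pregabalin. Incubated 60 min at 27 °C, stopped by GF/C filtration (0.5% PEI presoaked) with ice-cold 50 mM Tris-HCl pH 7.4 washes; bound radioactivity counted by scintillation.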

Experiment [2] deals with Human norepinephrine transporter (NET) (Homo sapiens (Human), UniProt P23975). Put plainly: Binding Assay to Human Norepinephrine Transporter (NET). To be noted: Table 2, dual compounds; human NET enriched membranes, 5 nM [3H]-Nisoxetin; read-out: Ki(nM) NET Hum. On the procedure:
Binding Assay to Human Norepinephrine Transporter (NET).
Human norepinephrine transporter (NET) enriched membranes (5 μg) were incubated with 5 nM of radiolabeled [3H]-Nisoxetin in assay buffer containing 50 mM Tris-HCl, 120 mM NaCl, 5 mM KCl, pH 7.4.
NSB (non specific binding) was measured by adding 10 μM desipramine. The binding of the test compound was measured in five different concentrations. After 60 min incubation at 4° C., binding reaction was terminated by filtering through Multiscreen GF/C (Millipore) presoaked in 0.5% polyethyleneimine in Vacuum Manifold Station, followed by 3 washes with ice-cold filtration buffer containing 50 mM Tris-HCl, 0.9% NaCl, pH 7.4.
Filter plates were dried at 60° C. for 1 hour and 30 μl of scintillation cocktail were added to each well before radioactivity reading.

Molecules are shown by their SMILES. Read-outs that look alike come from different tables or passages of the source. Where only a bound is given, the exact number is not on record here.

Human α2δ-1 subunit of Cav2.2 calcium channel, sequence (P54289 25-1103): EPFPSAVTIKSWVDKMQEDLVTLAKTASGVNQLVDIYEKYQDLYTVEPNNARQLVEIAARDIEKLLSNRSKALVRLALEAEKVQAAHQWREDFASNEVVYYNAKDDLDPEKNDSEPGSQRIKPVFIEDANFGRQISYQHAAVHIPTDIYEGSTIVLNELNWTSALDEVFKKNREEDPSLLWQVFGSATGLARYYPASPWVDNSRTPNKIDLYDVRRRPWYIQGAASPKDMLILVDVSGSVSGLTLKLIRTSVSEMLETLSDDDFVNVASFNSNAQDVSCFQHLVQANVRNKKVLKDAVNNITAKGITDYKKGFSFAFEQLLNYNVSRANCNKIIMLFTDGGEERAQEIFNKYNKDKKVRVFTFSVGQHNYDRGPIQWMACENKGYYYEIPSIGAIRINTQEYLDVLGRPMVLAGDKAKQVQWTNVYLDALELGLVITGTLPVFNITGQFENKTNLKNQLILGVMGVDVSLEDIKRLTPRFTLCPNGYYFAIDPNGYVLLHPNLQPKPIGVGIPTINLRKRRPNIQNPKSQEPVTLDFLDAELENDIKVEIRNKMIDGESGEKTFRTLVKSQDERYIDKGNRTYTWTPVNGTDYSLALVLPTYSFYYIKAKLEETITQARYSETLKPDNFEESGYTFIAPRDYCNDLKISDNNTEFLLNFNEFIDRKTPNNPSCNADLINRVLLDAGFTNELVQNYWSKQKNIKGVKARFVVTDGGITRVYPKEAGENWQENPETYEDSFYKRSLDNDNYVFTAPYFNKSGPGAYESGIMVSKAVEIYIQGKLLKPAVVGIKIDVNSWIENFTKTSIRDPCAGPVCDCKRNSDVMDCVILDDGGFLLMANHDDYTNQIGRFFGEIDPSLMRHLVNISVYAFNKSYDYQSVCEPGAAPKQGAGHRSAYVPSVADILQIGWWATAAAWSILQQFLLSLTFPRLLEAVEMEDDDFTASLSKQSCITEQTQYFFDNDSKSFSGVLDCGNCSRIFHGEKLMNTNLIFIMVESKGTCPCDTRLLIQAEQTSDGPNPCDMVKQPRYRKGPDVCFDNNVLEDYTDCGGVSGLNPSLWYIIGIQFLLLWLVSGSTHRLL
Human norepinephrine transporter (NET), sequence (P23975 whole entry): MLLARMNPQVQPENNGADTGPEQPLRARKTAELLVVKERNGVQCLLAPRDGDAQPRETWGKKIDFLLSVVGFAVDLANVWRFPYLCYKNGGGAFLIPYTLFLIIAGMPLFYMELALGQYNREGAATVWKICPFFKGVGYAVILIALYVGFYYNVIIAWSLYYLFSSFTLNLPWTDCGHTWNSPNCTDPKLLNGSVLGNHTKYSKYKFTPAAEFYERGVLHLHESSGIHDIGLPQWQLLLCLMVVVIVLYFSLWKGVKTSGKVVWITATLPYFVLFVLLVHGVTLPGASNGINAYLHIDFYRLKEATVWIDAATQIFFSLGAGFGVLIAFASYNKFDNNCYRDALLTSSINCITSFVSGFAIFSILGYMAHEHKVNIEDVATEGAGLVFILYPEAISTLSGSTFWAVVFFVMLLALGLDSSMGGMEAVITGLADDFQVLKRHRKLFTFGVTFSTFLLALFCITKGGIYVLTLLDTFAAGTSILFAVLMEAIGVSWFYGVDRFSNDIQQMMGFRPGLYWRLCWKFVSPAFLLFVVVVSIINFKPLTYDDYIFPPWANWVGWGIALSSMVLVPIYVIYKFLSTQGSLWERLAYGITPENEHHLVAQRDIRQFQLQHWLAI

Regarding `CNCC[C@H](Oc1ccc(CN2CCN(C)c3ncccc3C2=O)c(F)c1)c1ccccc1` [Example 116, (S)-4-(2-fluoro-4-(3-(methylamino)-1-phenylpropoxy)benzyl)-1-methyl-1,2,3,4-tetrahydro-5H-pyrido[2,3-e][1,4]diazepin-5-one], the Ki in experiment [1] (Table 1) is below 100 nM; in experiment [1] (Table 2, dual compounds), below 100 nM; in experiment [2] it was below 100 nM.

For the compound `CCNc1ccc2c(n1)N(C)CCN(Cc1ccc(O[C@@H](CCNC)c3cccc(F)c3)cc1F)C2=O` [Example 148, (S)-8-(ethylamino)-4-(2-fluoro-4-(1-(3-fluorophenyl)-3-(methylamino)propoxy)benzyl)-1-methyl-1,2,3,4-tetrahydro-5H-pyrido[2,3-e][1,4]diazepin-5-one], the Ki in experiment [1] (Table 1) is 100 to 500 nM; in experiment [1] (Table 2, dual compounds), 100 to 500 nM; in experiment [2], below 100 nM.

With `CNCC[C@H](Oc1ccc(CN2CCCn3nccc3C2=O)c(F)c1)c1ccccc1` [Example 145, (S)-5-(2-fluoro-4-(3-(methylamino)-1-phenylpropoxy)benzyl)-5,6,7,8-tetrahydro-4H-pyrazolo[1,5-a][1,4]diazepin-4-one], the Ki in experiment [1] (Table 1) is 500 to 3000 nM; in experiment [1] (Table 2, dual compounds), 500 to 3000 nM; in experiment [2] it was below 100 nM.

For the compound `CNCC[C@H](Oc1ccc(CN2CCCn3nccc3C2=O)cc1)c1cccs1` [Example 104, (S)-5-(4-(3-(methylamino)-1-(thiophen-2-yl)propoxy)benzyl)-5,6,7,8-tetrahydro-4H-pyrazolo[1,5-a][1,4]diazepin-4-one], the Ki was in the range of 100 to 500 nM in experiment [1] (Table 1); 100 to 500 nM in experiment [1] (Table 2, dual compounds); 100 to 500 nM in experiment [2].

As to `CNCC[C@H](Oc1ccc(CN2CCN(C)c3ncccc3C2=O)c(Cl)c1)c1cccc(F)c1` [Example 149, (S)-4-(2-chloro-4-(1-(3-fluorophenyl)-3-(methylamino)propoxy)benzyl)-1-methyl-1,2,3,4-tetrahydro-5H-pyrido[2,3-e][1,4]diazepin-5-one], the Ki in experiment [1] (Table 1) is below 100 nM; in experiment [1] (Table 2, dual compounds), below 100 nM; in experiment [2], below 100 nM.

In the case of `CNCC[C@H](Oc1ccc(CN2CCN(C)c3nc(O)ccc3C2=O)c(F)c1)c1ccccc1` [Example 142, (S)-4-(2-fluoro-4-(3-(methylamino)-1-phenylpropoxy)benzyl)-8-hydroxy-1-methyl-1,2,3,4-tetrahydro-5H-pyrido[2,3-e][1,4]diazepin-5-one], the Ki in experiment [1] (Table 1) was above 3000 nM; in experiment [1] (Table 2, dual compounds) it was above 3000 nM; in experiment [2], below 100 nM.

Consider `CNCC[C@H](Oc1ccc(CN2CCN(C)c3ncccc3C2=O)c(F)c1)c1cccc(F)c1` [Example 136, (S)-4-(2-fluoro-4-(1-(3-fluorophenyl)-3-(methylamino)propoxy)benzyl)-1-methyl-1,2,3,4-tetrahydro-5H-pyrido[2,3-e][1,4]diazepin-5-one], for which the Ki in experiment [1] (Table 1) is below 100 nM; in experiment [1] (Table 2, dual compounds) it was below 100 nM; in experiment [2] it was below 100 nM.

As to `CNCCC(OCc1cccc(N2CCN(C)c3ccccc3C2)c1)c1ccccc1` (stereo not drawn) [Example 7, N-methyl-3-((3-(1-methyl-1,2,3,5-tetrahydro-4H-benzo[e][1,4]diazepin-4-yl)benzyl)oxy)-3-phenylpropan-1-amine], the Ki was 500 to 3000 nM in experiment [1] (Table 1); 500 to 3000 nM in experiment [1] (Table 2, dual compounds); 500 to 1000 nM in experiment [2].

In the case of `CNCC[C@H](Oc1cc(F)cc(N2CCN(C)c3ncccc3C2=O)c1)c1cccs1` [Example 120, (S)-4-(3-fluoro-5-(3-(methylamino)-1-(thiophen-2-yl)propoxy)phenyl)-1-methyl-1,2,3,4-tetrahydro-5H-pyrido[2,3-e][1,4]diazepin-5-one], the Ki in experiment [1] (Table 1) was below 100 nM; in experiment [1] (Table 2, dual compounds) it was below 100 nM; in experiment [2], below 100 nM.

For `CNCCC(Oc1ccc(CN2CCN(C)c3ncccc3C2=O)cc1)c1cccc(F)c1` (stereo not drawn) [Example 117, 4-(4-(1-(3-Fluorophenyl)-3-(methylamino)propoxy)benzyl)-1-methyl-1,2,3,4-tetrahydro-5H-pyrido[2,3-e][1,4]diazepin-5-one], the Ki is 100 to 500 nM in experiment [1] (Table 1); 100 to 500 nM in experiment [1] (Table 2, dual compounds); below 100 nM in experiment [2].

`CNCCC(Oc1ccc(CN2CCN(C)c3ncccc3C2=O)cc1)c1cccs1` (stereo not drawn) [Example 99, 1-Methyl-4-(4-(3-(methylamino)-1-(thiophen-2-yl)propoxy)benzyl)-1,2,3,4-tetrahydro-5H-pyrido[2,3-e][1,4]diazepin-5-one]: the Ki was below 100 nM in experiment [1] (Table 1); below 100 nM in experiment [1] (Table 2, dual compounds); below 100 nM in experiment [2].

`CNCC[C@H](Oc1ccc(CN2CCN(C)c3cnc(OC)cc3C2=O)c(F)c1)c1ccccc1` [Example 140, (S)-4-(2-fluoro-4-(3-(methylamino)-1-phenylpropoxy)benzyl)-7-methoxy-1-methyl-1,2,3,4-tetrahydro-5H-pyrido[3,4-e][1,4]diazepin-5-one]: the Ki in experiment [1] (Table 1) was below 100 nM; in experiment [1] (Table 2, dual compounds), below 100 nM; in experiment [2], below 100 nM.

Regarding `CNCCC(Oc1cccc(N2CCN(C)c3nc(N(C)C)ccc3C2=O)c1)c1cccs1` (stereo not drawn) [Example 70, 8-(Dimethylamino)-1-methyl-4-(3-(3-(methylamino)-1-(thiophen-2-yl)propoxy)phenyl)-1,2,3,4-tetrahydro-5H-pyrido[2,3-e][1,4]diazepin-5-one], the Ki in experiment [1] (Table 1) lay in the range of 500 to 3000 nM; in experiment [1] (Table 2, dual compounds), 500 to 3000 nM; in experiment [2] it was 100 to 500 nM.

`CNCC[C@H](Oc1cccc(N2CCN(C)c3nc(C)ccc3C2=O)c1)c1ccsc1` [Example 80, (S)-1,8-dimethyl-4-(3-(3-(methylamino)-1-(thiophen-3-yl)propoxy)phenyl)-1,2,3,4-tetrahydro-5H-pyrido[2,3-e][1,4]diazepin-5-one]: the Ki was 100 to 500 nM in experiment [1] (Table 1); 100 to 500 nM in experiment [1] (Table 2, dual compounds); below 100 nM in experiment [2].

Take `CNCC[C@H](Oc1ccc(CN2CCN(C)c3nc(OC)ccc3C2=O)c(F)c1)c1ccccc1` [Example 132, (S)-4-(2-fluoro-4-(3-(methylamino)-1-phenylpropoxy)benzyl)-8-methoxy-1-methyl-1,2,3,4-tetrahydro-5H-pyrido[2,3-e][1,4]diazepin-5-one]: the Ki in experiment [1] (Table 1) was 100 to 500 nM; in experiment [1] (Table 2, dual compounds), 100 to 500 nM; in experiment [2], below 100 nM.

As for `CNCCC(Oc1cc(F)cc(N2CCN(C)c3ncccc3C2=O)c1)c1cccc(F)c1` (stereo not drawn) [Example 121, 4-(3-Fluoro-5-(1-(3-fluorophenyl)-3-(methylamino)propoxy)phenyl)-1-methyl-1,2,3,4-tetrahydro-5H-pyrido[2,3-e][1,4]diazepin-5-one], the Ki in experiment [1] (Table 1) was below 100 nM; in experiment [1] (Table 2, dual compounds), below 100 nM; in experiment [2], below 100 nM.

`CNCCC(Oc1ccc(F)c(N2CCN(C)c3ncccc3C2=O)c1)c1cccc(F)c1` (stereo not drawn) [Example 119, 4-(2-Fluoro-5-(1-(3-ftuorophenyl)-3-(methylamino)propoxy)phenyl)-1-methyl-1,2,3,4-tetrahydro-5H-pyrido[2,3-e][1,4]diazepin-5-one]: the Ki was 100 to 500 nM in experiment [1] (Table 1); 100 to 500 nM in experiment [1] (Table 2, dual compounds); below 100 nM in experiment [2].

Turning to `CNCC[C@H](Oc1ccc(CN2CCN(C)c3ncccc3C2=O)c(Cl)c1)c1cccs1` [Example 126, (S)-4-(2-chloro-4-(3-(methylamino)-1-(thiophen-2-yl)propoxy)benzyl)-1-methyl-1,2,3,4-tetrahydro-5H-pyrido[2,3-e][1,4]diazepin-5-one], the Ki is below 100 nM in experiment [1] (Table 1); below 100 nM in experiment [1] (Table 2, dual compounds); below 100 nM in experiment [2].
